# Test results as given in patent publication US20230022400A1, “IMMUNOMODULATORS” (Bristol-Myers Squibb Company, priority 2019, published 2023).
# Where a SMILES comes first, the peptide text is derived from it. Bridges are numbered along the chain shown (N, C = ends). [ ]: non-standard residue; d: D form. The star is where a group is joined. Trp(1-CH2CO2Me) = COC(=O)Cn1cc(C[C@H](N)C(=O)O)c2ccccc21; Trp(1-CH2COOH) = N[C@@H](Cc1cn(CC(=O)O)c2ccccc12)C(=O)O; X19 = c1ccc(N2CCN(c3ncnc(*)n3)CC2)cc1; Hyp = O=C(O)[C@@H]1C[C@@H](O)CN1; NMeNle = CCCC[C@H](NC)C(=O)O; X18 = c1ccc(-c2ccnc(*)n2)cc1; NMeA = CN[C@@H](C)C(=O)O; Dab = NCC[C@H](N)C(=O)O; Dap = NC[C@H](N)C(=O)O; X6 = c1ccc2nc(*)cnc2c1; X1 = c1ccc2sc(*)nc2c1; X11 = COc1ccnc(*)n1; X12 = Brc1cnc(*)nc1; X3 = N#Cc1ccc(*)nc1; X15 = c1cnc(*)cn1
# Molecular target: T1, PD-1/PD-L1 interaction (PD-1-Ig / PD-L1-His) (Homo sapiens, UniProt Q9NZQ7)
# T1 construct: TVMV protease site (linker) (C); made in house; host or cells: HEK293T cells
# Test: PD-1/PD-L1 Homogenous Time-Resolved Fluorescence (HTRF) binding assay
# Conditions: PD-L1-His 10 nM final, PD-1-Ig 20 nM final; inhibitors pre-incubated with PD-L1-His for 15 m
# From the text: The ability of the compounds of formula (I) to bind to PD-L1 was investigated using a PD-1/PD-L1 Homogenous Time-Resolved Fluorescence (HTRF) binding assay.
# The interaction of PD-1 and PD-L1 can be assessed using soluble, purified preparations of the extracellular domains of the two proteins. The PD-1 and PD-L1 protein extracellular domains were expressed as fusion proteins with detection tags, for PD-1, the tag was the Fc portion of Immunoglobulin (PD-1-Ig) and for PD-L1 it was the 6 histidine motif (PD-L1-His). All binding studies were performed in an HTRF assay buffer consisting of dPBS supplemented with 0.1% […] bovine serum albumin and 0.05% (v/v) Tween-20. For the h/PD-L1-His binding assay, inhibitors were pre-incubated with PD-L1-His (10 nM final) for 15 m in 4 μl of assay buffer, followed by addition of PD-1-Ig (20 nM final) in 1 μl of assay buffer and further incubation for 15 m. HTRF detection was achieved using europium crypate-labeled anti-Ig (1 nM final) and allophycocyanin (APC) labeled anti-His (20 nM final). Antibodies were diluted in HTRF detection buffer and 5 μl was dispensed on top of the binding reaction. The reaction mixture was allowed to equilibrate for 30 minutes and the resulting signal (665 nm/620 nm ratio) was obtained using an EnVision fluorometer. Additional binding assays were established between the human proteins PD-1-Ig/PD-L2-His (20 & 5 nM, respectively) and CD80-His/PD-L1-Ig (100 & 10 nM, respectively).
# Recombinant Proteins: Human PD-1 (25-167) with a C-terminal human Fc domain of immunoglobulin G (Ig) epitope tag [hPD-1 (25-167)-3S-IG] and human PD-L1 (18-239) with a C-terminal His epitope tag [hPD-L1(18-239)-TVMV-His] were expressed in HEK293T cells and purified sequentially by ProteinA affinity chromatography and size exclusion chromatography. Human PD-L2-His and CD80-His was obtained through commercial sources.
# Table 1 lists the IC50 values for representative examples of this disclosure measured in the PD-1/PD-L1 Homogenous Time-Resolved Fluorescence (HTRF) binding assay.
# T1 sequence (Q9NZQ7 18-239): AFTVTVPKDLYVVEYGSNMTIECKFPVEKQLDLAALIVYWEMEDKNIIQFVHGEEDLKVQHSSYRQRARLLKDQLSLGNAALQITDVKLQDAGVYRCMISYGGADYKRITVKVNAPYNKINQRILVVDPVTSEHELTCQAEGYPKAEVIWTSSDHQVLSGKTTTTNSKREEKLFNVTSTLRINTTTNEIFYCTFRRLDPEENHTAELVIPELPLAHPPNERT
row,SMILES,IC50
1,CCCC[C@H]1C(=O)N(C)[C@@H](CCCC)C(=O)N[C@@H](CC(C)C)C(=O)N[C@H](C(=O)NCC(N)=O)CSCC(=O)N[C@@H](Cc2ccc(O)cc2)C(=O)N(C)[C@@H](C)C(=O)N[C@@H](CC(N)=O)C(=O)N2CCC[C@H]2C(=O)N[C@@H](CNc2nccc(OC)n2)C(=O)N[C@@H](CC(C)C)C(=O)N2C[C@H](O)C[C@H]2C(=O)N[C@@H](Cc2c[nH]c3ccccc23)C(=O)N[C@@H](CCN)C(=O)N[C@@H](Cc2cn(CC(=O)O)c3ccccc23)C(=O)N1C [Compound 1001] ({CH2CO}-Y[NMeA]NP[Dap](X11)L[Hyp]W[Dab][Trp(1-CH2COOH)][NMeNle][NMeNle]LCG-NH2; thioether N-14),5.4 nM
2,CCCC[C@H]1C(=O)N(C)[C@@H](CCCC)C(=O)N[C@@H](CC(C)C)C(=O)N[C@H](C(=O)NCC(N)=O)CSCC(=O)N[C@@H](Cc2ccc(O)cc2)C(=O)N(C)[C@@H](C)C(=O)N[C@@H](CC(N)=O)C(=O)N2CCC[C@H]2C(=O)N[C@@H](CNc2ccc(C#N)cn2)C(=O)N[C@@H](CC(C)C)C(=O)N2C[C@H](O)C[C@H]2C(=O)N[C@@H](Cc2c[nH]c3ccccc23)C(=O)N[C@@H](CCNc2ccc(C#N)cn2)C(=O)N[C@@H](Cc2cn(CC(=O)O)c3ccccc23)C(=O)N1C [Compound 1002] ({CH2CO}-Y[NMeA]NP[Dap](X3)L[Hyp]W[Dab](X3)[Trp(1-CH2COOH)][NMeNle][NMeNle]LCG-NH2; thioether N-14),4.5 nM
3,CCCC[C@H]1C(=O)N(C)[C@@H](CCCC)C(=O)N[C@@H](CC(C)C)C(=O)N[C@H](C(=O)NCC(N)=O)CSCC(=O)N[C@@H](Cc2ccc(O)cc2)C(=O)N(C)[C@@H](C)C(=O)N[C@@H](CC(N)=O)C(=O)N2CCC[C@H]2C(=O)N[C@@H](CNc2nccc(-c3ccccc3)n2)C(=O)N[C@@H](CC(C)C)C(=O)N2C[C@H](O)C[C@H]2C(=O)N[C@@H](Cc2c[nH]c3ccccc23)C(=O)N[C@@H](CCNc2nccc(-c3ccccc3)n2)C(=O)N[C@@H](Cc2cn(CC(=O)O)c3ccccc23)C(=O)N1C [Compound 1003] ({CH2CO}-Y[NMeA]NP[Dap](X18)L[Hyp]W[Dab](X18)[Trp(1-CH2COOH)][NMeNle][NMeNle]LCG-NH2; thioether N-14),8.3 nM
4,CCCC[C@H]1C(=O)N(C)[C@@H](CCCC)C(=O)N[C@@H](CC(C)C)C(=O)N[C@H](C(=O)NCC(N)=O)CSCC(=O)N[C@@H](Cc2ccc(O)cc2)C(=O)N(C)[C@@H](C)C(=O)N[C@@H](CC(N)=O)C(=O)N2CCC[C@H]2C(=O)N[C@@H](CNc2cnccn2)C(=O)N[C@@H](CC(C)C)C(=O)N2C[C@H](O)C[C@H]2C(=O)N[C@@H](Cc2c[nH]c3ccccc23)C(=O)N[C@@H](CCNc2cnccn2)C(=O)N[C@@H](Cc2cn(CC(=O)O)c3ccccc23)C(=O)N1C [Compound 1004] ({CH2CO}-Y[NMeA]NP[Dap](X15)L[Hyp]W[Dab](X15)[Trp(1-CH2COOH)][NMeNle][NMeNle]LCG-NH2; thioether N-14),5.1 nM
5,CCCC[C@H]1C(=O)N(C)[C@@H](CCCC)C(=O)N[C@@H](CC(C)C)C(=O)N[C@H](C(=O)NCC(N)=O)CSCC(=O)N[C@@H](Cc2ccc(O)cc2)C(=O)N(C)[C@@H](C)C(=O)N[C@@H](CC(N)=O)C(=O)N2CCC[C@H]2C(=O)N[C@@H](CNc2cnccn2)C(=O)N[C@@H](CC(C)C)C(=O)N2C[C@H](O)C[C@H]2C(=O)N[C@@H](Cc2c[nH]c3ccccc23)C(=O)N[C@@H](CCN)C(=O)N[C@@H](Cc2cn(CC(=O)O)c3ccccc23)C(=O)N1C [Compound 1005] ({CH2CO}-Y[NMeA]NP[Dap](X15)L[Hyp]W[Dab][Trp(1-CH2COOH)][NMeNle][NMeNle]LCG-NH2; thioether N-14),11 nM
6,CCCC[C@H]1C(=O)N(C)[C@@H](CCCC)C(=O)N[C@@H](CC(C)C)C(=O)N[C@H](C(=O)NCC(N)=O)CSCC(=O)N[C@@H](Cc2ccc(O)cc2)C(=O)N(C)[C@@H](C)C(=O)N[C@@H](CC(N)=O)C(=O)N2CCC[C@H]2C(=O)N[C@@H](CNc2nccc(-c3ccccc3)n2)C(=O)N[C@@H](CC(C)C)C(=O)N2C[C@H](O)C[C@H]2C(=O)N[C@@H](Cc2c[nH]c3ccccc23)C(=O)N[C@@H](CCN)C(=O)N[C@@H](Cc2cn(CC(=O)O)c3ccccc23)C(=O)N1C [Compound 1006] ({CH2CO}-Y[NMeA]NP[Dap](X18)L[Hyp]W[Dab][Trp(1-CH2COOH)][NMeNle][NMeNle]LCG-NH2; thioether N-14),11 nM

# More lines, now with the values ahead:
row,IC50,SMILES
1,9.8 nM,CCCC[C@H]1C(=O)N(C)[C@@H](CCCC)C(=O)N[C@@H](CC(C)C)C(=O)N[C@H](C(=O)NCC(N)=O)CSCC(=O)N[C@@H](Cc2ccc(O)cc2)C(=O)N(C)[C@@H](C)C(=O)N[C@@H](CC(N)=O)C(=O)N2CCC[C@H]2C(=O)N[C@@H](CNc2ncnc(N3CCN(c4ccccc4)CC3)n2)C(=O)N[C@@H](CC(C)C)C(=O)N2C[C@H](O)C[C@H]2C(=O)N[C@@H](Cc2c[nH]c3ccccc23)C(=O)N[C@@H](CCNc2ncnc(N3CCN(c4ccccc4)CC3)n2)C(=O)N[C@@H](Cc2cn(CC(=O)O)c3ccccc23)C(=O)N1C [Compound 1009] ({CH2CO}-Y[NMeA]NP[Dap](X19)L[Hyp]W[Dab](X19)[Trp(1-CH2COOH)][NMeNle][NMeNle]LCG-NH2; thioether N-14)
2,4.9 nM,CCCC[C@H]1C(=O)N(C)[C@@H](CCCC)C(=O)N[C@@H](CC(C)C)C(=O)N[C@H](C(=O)NCC(N)=O)CSCC(=O)N[C@@H](Cc2ccc(O)cc2)C(=O)N(C)[C@@H](C)C(=O)N[C@@H](CC(N)=O)C(=O)N2CCC[C@H]2C(=O)N[C@@H](CNc2ncc(Br)cn2)C(=O)N[C@@H](CC(C)C)C(=O)N2C[C@H](O)C[C@H]2C(=O)N[C@@H](Cc2c[nH]c3ccccc23)C(=O)N[C@@H](CCNc2ncc(Br)cn2)C(=O)N[C@@H](Cc2cn(CC(=O)O)c3ccccc23)C(=O)N1C [Compound 1010] ({CH2CO}-Y[NMeA]NP[Dap](X12)L[Hyp]W[Dab](X12)[Trp(1-CH2COOH)][NMeNle][NMeNle]LCG-NH2; thioether N-14)
3,4 nM,CCCC[C@H]1C(=O)N(C)[C@@H](CCCC)C(=O)N[C@@H](CC(C)C)C(=O)N[C@H](C(=O)NCC(N)=O)CSCC(=O)N[C@@H](Cc2ccc(O)cc2)C(=O)N(C)[C@@H](C)C(=O)N[C@@H](CC(N)=O)C(=O)N2CCC[C@H]2C(=O)N[C@@H](CNc2nc3ccccc3s2)C(=O)N[C@@H](CC(C)C)C(=O)N2C[C@H](O)C[C@H]2C(=O)N[C@@H](Cc2c[nH]c3ccccc23)C(=O)N[C@@H](CCN)C(=O)N[C@@H](Cc2cn(CC(=O)O)c3ccccc23)C(=O)N1C [Compound 11001] ({CH2CO}-Y[NMeA]NP[Dap](X1)L[Hyp]W[Dab][Trp(1-CH2COOH)][NMeNle][NMeNle]LCG-NH2; thioether N-14)
4,4.5 nM,CCCC[C@H]1C(=O)N(C)[C@@H](CCCC)C(=O)N[C@@H](CC(C)C)C(=O)N[C@H](C(=O)NCC(N)=O)CSCC(=O)N[C@@H](Cc2ccc(O)cc2)C(=O)N(C)[C@@H](C)C(=O)N[C@@H](CC(N)=O)C(=O)N2CCC[C@H]2C(=O)N[C@@H](CNc2nc3ccccc3s2)C(=O)N[C@@H](CC(C)C)C(=O)N2C[C@H](O)C[C@H]2C(=O)N[C@@H](Cc2c[nH]c3ccccc23)C(=O)N[C@@H](CCNc2nc3ccccc3s2)C(=O)N[C@@H](Cc2cn(CC(=O)O)c3ccccc23)C(=O)N1C [Compound 11002] ({CH2CO}-Y[NMeA]NP[Dap](X1)L[Hyp]W[Dab](X1)[Trp(1-CH2COOH)][NMeNle][NMeNle]LCG-NH2; thioether N-14)
5,7.1 nM,CCCC[C@H]1C(=O)N(C)[C@@H](CCCC)C(=O)N[C@@H](CC(C)C)C(=O)N[C@H](C(=O)NCC(N)=O)CSCC(=O)N[C@@H](Cc2ccc(O)cc2)C(=O)N(C)[C@@H](C)C(=O)N[C@@H](CC(N)=O)C(=O)N2CCC[C@H]2C(=O)N[C@@H](CNc2cnc3ccccc3n2)C(=O)N[C@@H](CC(C)C)C(=O)N2C[C@H](O)C[C@H]2C(=O)N[C@@H](Cc2c[nH]c3ccccc23)C(=O)N[C@@H](CCN)C(=O)N[C@@H](Cc2cn(CC(=O)O)c3ccccc23)C(=O)N1C [Compound 11003] ({CH2CO}-Y[NMeA]NP[Dap](X6)L[Hyp]W[Dab][Trp(1-CH2COOH)][NMeNle][NMeNle]LCG-NH2; thioether N-14)
6,5.6 nM,CCCC[C@H]1C(=O)N(C)[C@@H](CCCC)C(=O)N[C@@H](CC(C)C)C(=O)N[C@H](C(=O)NCC(N)=O)CSCC(=O)N[C@@H](Cc2ccc(O)cc2)C(=O)N(C)[C@@H](C)C(=O)N[C@@H](CC(N)=O)C(=O)N2CCC[C@H]2C(=O)N[C@@H](CNc2nc3ccccc3s2)C(=O)N[C@@H](CC(C)C)C(=O)N2C[C@H](O)C[C@H]2C(=O)N[C@@H](Cc2c[nH]c3ccccc23)C(=O)N[C@@H](CCN)C(=O)N[C@@H](Cc2cn(CC(=O)OC)c3ccccc23)C(=O)N1C [Compound 11004] ({CH2CO}-Y[NMeA]NP[Dap](X1)L[Hyp]W[Dab][Trp(1-CH2CO2Me)][NMeNle][NMeNle]LCG-NH2; thioether N-14)
